Measurements reported in patent publication EP0637237B1, “CALCIUM RECEPTOR-ACTIVE MOLECULES” (BRIGHAM AND WOMEN'S HOSPITAL, INC., priority 1993, dated 1994).
pEC50: −log10 of the molar value. Where two headings read alike, the source gives them in different places.

Legend:
[1] = Serum or whole blood ionized Ca2+ and PTH in rats in vivo; parameters: species or system Sprague-Dawley rats
From the text: Male Sprague-Dawley rates (200 g) were maintained on a low calcium diet for one week prior to receiving test substance or vehicle as control. Blood was collected from the tail vein three hours after the intra-peritoneal administration of NPS 467. […]

[2] = target: T1, parathyroid cell Ca^2+ receptor (Bos taurus, UniProt P35384); type: cell-based, bovine; conditions: for effect on [Ca2+]i: tested at concentrations of 100 to 300 µM
T1 sequence (P35384 20-1085): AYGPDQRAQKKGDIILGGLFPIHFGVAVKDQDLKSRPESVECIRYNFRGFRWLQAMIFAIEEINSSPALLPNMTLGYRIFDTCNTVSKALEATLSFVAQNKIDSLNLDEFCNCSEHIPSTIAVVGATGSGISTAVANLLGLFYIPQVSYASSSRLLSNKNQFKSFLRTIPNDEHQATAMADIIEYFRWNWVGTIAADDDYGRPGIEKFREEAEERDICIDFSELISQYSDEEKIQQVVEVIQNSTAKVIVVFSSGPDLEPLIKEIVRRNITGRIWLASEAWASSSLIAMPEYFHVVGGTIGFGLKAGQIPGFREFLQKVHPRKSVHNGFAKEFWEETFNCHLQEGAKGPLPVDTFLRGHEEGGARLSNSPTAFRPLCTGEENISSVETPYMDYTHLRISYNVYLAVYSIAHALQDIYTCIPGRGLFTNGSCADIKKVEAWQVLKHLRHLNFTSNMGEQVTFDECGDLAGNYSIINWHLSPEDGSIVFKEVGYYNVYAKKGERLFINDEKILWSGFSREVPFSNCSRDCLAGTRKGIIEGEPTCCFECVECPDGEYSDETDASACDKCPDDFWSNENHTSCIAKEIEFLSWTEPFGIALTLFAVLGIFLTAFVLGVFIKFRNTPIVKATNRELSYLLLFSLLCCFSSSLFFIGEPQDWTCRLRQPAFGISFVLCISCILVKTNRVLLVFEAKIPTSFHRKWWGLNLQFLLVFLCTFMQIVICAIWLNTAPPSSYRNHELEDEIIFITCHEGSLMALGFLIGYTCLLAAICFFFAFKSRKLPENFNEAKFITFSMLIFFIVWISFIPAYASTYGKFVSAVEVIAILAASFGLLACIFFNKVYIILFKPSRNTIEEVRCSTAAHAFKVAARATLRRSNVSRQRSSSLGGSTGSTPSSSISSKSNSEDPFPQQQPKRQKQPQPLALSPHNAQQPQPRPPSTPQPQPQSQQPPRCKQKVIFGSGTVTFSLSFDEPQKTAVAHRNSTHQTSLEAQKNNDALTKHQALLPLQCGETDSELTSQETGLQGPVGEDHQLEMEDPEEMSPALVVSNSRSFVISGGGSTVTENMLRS

[3] = Net positive charge of the molecule; type: physicochemical; conditions: Table 1; effective charge at physiological pH
[4] = system: osteoclast Ca^2+ receptor; assay: [Ca2+]i (indo-1) in single rat osteoclasts; type: cell-based; conditions: for increase in [Ca2+]i in osteoclasts: screening, small responses were detected
[5] = target: T2, parathyroid cell Ca^2+ receptor (Homo sapiens, UniProt P41180); assay: [Ca2+]i (fura-2) in human parathyroid cells; type: cell-based; conditions: human parathyroid cells (adenoma)
T2 construct: Dissociated parathyroid cells were prepared from a parathyroid adenoma obtained by surgery from a patient with primary hyperparathyroidism; endogenous in cells; host or cells: primary human parathyroid cells from adenomatous or hyperplastic glands
T2 sequence (P41180 20-1078): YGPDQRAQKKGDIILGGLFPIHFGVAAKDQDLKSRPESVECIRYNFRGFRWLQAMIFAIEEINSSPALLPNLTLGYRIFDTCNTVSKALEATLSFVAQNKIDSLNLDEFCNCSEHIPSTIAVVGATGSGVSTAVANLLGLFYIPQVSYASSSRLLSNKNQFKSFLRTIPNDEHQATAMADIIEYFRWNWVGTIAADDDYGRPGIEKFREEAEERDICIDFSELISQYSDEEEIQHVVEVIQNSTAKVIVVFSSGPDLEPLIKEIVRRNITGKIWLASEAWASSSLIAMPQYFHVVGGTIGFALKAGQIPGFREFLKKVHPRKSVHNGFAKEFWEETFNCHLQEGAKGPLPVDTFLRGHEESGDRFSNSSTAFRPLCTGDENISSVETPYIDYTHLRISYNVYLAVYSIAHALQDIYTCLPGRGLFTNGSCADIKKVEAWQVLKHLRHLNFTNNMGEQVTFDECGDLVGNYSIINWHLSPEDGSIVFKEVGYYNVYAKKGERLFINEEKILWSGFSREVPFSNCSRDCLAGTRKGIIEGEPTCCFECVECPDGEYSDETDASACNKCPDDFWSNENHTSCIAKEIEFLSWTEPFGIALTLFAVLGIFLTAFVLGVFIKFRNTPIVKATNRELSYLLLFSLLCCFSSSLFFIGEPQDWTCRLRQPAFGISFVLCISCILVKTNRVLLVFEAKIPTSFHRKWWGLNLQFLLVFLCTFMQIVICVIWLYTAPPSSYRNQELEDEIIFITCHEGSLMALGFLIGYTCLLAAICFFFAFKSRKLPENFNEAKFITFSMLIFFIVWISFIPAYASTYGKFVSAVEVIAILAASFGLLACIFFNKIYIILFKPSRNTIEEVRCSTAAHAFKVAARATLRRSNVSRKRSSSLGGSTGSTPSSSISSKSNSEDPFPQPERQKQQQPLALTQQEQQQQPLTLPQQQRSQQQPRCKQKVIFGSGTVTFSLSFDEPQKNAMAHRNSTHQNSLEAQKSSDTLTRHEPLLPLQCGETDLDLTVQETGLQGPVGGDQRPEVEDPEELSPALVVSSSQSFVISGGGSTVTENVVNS
Description: Human parathyroid glands, obtained from patients undergoing surgical removal of parathyroid tissue for primary or uremic hyperparathyroidism (HPT), were treated similarly to bovine tissue. Glands were trimmed of excess fat and connective tissue and then minced with a fine scissors into approximate cubes of 2-3 mm. Dissociated parathyroid cells were prepared by collagenase digestion. Dissociated cells were then purified by centrifugation in Percoll buffer. The resultant parathyroid cell preparation was essentially devoid of red blood cells, adipocytes, and capillary tissue as assessed by phase contrast microscopy and Sudan black B staining. Dissociated and purified parathyroid cells were present as small clusters containing 5 to 20 cells.
The cells were then pelleted, resuspended in the same buffer lacking the ester, and incubated a further 15 min at 37°C. The cells were subsequently washed twice with PCB containing 0.5 mM CaCl2 and 0.5% BSA and maintained at room temperature (about 20°C). Immediately before use, the cells were diluted five-fold with prewarmed 0.5 mM CaCl2-PCB to obtain a final BSA concentration of 0.1%. The concentration of cells in the cuvette used for fluorescence recording was 1-2 x 10^6/ml.
The fluorescence of indicator-loaded cells was measured at 37°C in a spectrofluorimeter (Biomedical Instrumentation Group, University of Pennsylvania, Philadelphia, PA) equipped with a thermostated cuvette holder-and magnetic stirrer using excitation and emission wavelengths of 340 and 510 nm, respectively. […] Leakage of dye is dependent on temperature and most occurs within the first 2 min after warming the cells in the cuvette; dye leakage increases only very slowly thereafter. To correct the calibration for dye leakage, cells were placed in the cuvette and stirred at 37°C for 2-3 min. The cell suspension was then removed, the cells pelleted, and the supernatant returned to a clean cuvette. […] This estimate was subtracted from the apparent Fmin.

Ca^2+ receptor = target: T3, Ca^2+ receptor (Homo sapiens, UniProt P41180); assay: Cl- current in Xenopus oocytes injected with human parathyroid poly(A)+ mRNA; type: cell-based; conditions: hexacyclen 135 µM, neomycin 100 µM, NPS 382 5 mM
T3 construct: Oocytes were injected with poly(A)^+-enriched mRNA from human parathyroid tissue (hyperplastic glands from a case of secondary HPT); expressed in transfected cells; host or cells: Xenopus laevis oocytes injected with poly(A)+ mRNA from hyperplastic human parathyroid glands
T3 sequence (P41180 20-1078): T2 sequence (P41180 20-1078)

[6] = read-out: EC50 for the mobilization of intracellular Ca2+, […]
[7] = Table 6, rat osteoclasts, indo-1, inactive = no increase in cytosolic Ca2+ at 1-5 mM
[8] = Table 1, mobilization of intracellular Ca2+ in parathyroid cells, read-out: EC50

In the case of COc1cccc(C(C)NCCCc2ccccc2)c1 (racemic) [NPS 467], the “time course of the hypocalcemic effect” value ([1]; Fig. 40 (25 mg/kg)) was “maximal within three hours and returned toward control levels after 24 hours”, the “serum albumin or phosphate levels” value ([1]; any of the doses examined) was “no change in serum albumin or phosphate levels” and the “serum or whole blood Ca2+” value ([1]; low calcium diet, three hours after intra-peritoneal administration, Fig. 38) was “dose-dependent reduction in serum or whole blood Ca^2+”. For the same compound, the “serum ionized calcium after oral administration” value ([1]; oral, dose-response curve, Fig. 44) was “lowers serum ionized calcium in rats when administered orally”, the “circulating levels of PTH” value ([1]; preliminary studies, doses effective in lowering blood Ca2+, Fig. 39) was “dose-dependent reduction in circulating levels of PTH” and the pEC50 [2, 6] was > 5.30.
In the case of COc1cccc(C(C)NCCCc2ccccc2Cl)c1 (racemic) [NPS 568], the pEC50 [2, 6] was > 5.30.
In the case of NCCCCCCCCCCCCN [1,12-diaminododecane (DADD), 1,12-diaminododecane], the “Net (+) Charge” value [3] was “+2” and the pEC50 ([2]; read-out: EC50) was 2.52.
In the case of NC(=O)C[C@H](NC(=O)Cc1c[nH]c2cccc(O)c12)C(=O)NCCCCCNCCCNCCCNC(=O)[C@@H](N)CCCN=C(N)N [Argiotoxin 659], the “Net (+) Charge” value [3] was “+4” and the “effect on [Ca2+]i” value [2] was “evoked transient increases in [Ca^2+]i”.
For NCCCNCCCCNCCCNCCCN(O)CCCNC(=O)Cc1c[nH]c2ccccc12 [NPS 017], the “EC50(µM) OSTEOCLAST” value [4, 7] was “inactive”.
For NCCCNCCCCNCCCNCCCNCCCNC(=O)Cc1c[nH]c2ccccc12 [NPS 019], the EC50 [4, 7] was > 300 µM.
In the case of NCCCN(CCCN)CCCN(CCCN)CCCCN(CCCN)CCCN(CCCN)CCCN [NPS 381, N^1,N^1,N^5,N^10,N^14,N^14-hexakis-(3-aminopropyl) spermine], the “Net (+) Charge” value [3] was “+10”.
In the case of NCCCN1CCCN(CCCN)CCN(CCCN)CCCN(CCCN)CC1 [NPS 383], the “Net (+) Charge” value [3] was “+8”.
COc1cccc([C@@H](C)NCCCc2ccccc2Cl)c1 [NPS R-568] gave an EC50 ([2]; Table 6, […], fura-2, inactive = no increase in cytosolic Ca2+ at 1-5 mM, read-out: EC50(µM) PARATHYROID) of 0.6 µM and a pEC50 [5] of 5.52.
In the case of NC(=O)C[C@H](NC(=O)Cc1ccc(O)cc1O)C(=O)NCCCCCNCCCNCCCNC(=O)[C@@H](N)CCCN=C(N)N [argiotoxin 636], the “effect on [Ca2+]i” value [2] was “without effect”.
In the case of NC[C@H]1O[C@H](O[C@H]2[C@H](O)[C@@H](O[C@H]3O[C@H](CO)[C@@H](O)[C@H](N)[C@H]3O)[C@H](N)C[C@@H]2N)[C@H](N)[C@@H](O)[C@@H]1O [bekanamycin], the “Net (+) Charge” value [3] was “+5”, the pEC50 [2, 8] was 3.70 and the pEC50 ([2]; […]) was 3.70.
In the case of C1CNCCNCCNCCNCCNCCN1 [hexacyclen, 1,4,7,10,13,16-hexaaza-cyclooctadecane], the “Net (+) Charge” value [3] was “+6”, the “fold increase in potency over pentaethylenehexamine (straight chain analog)” value [2] was 25 fold and the pEC50 [2, 8] was 4.70. For the same compound, the pEC50 ([2]; […]) was 4.70 and the “mobilization of intracellular Ca2+ in oocytes expressing the Ca2+ receptor” value (Ca^2+ receptor) was “caused the mobilization of intracellular Ca^2+”.
With CCC[C@@H]1C[C@@H](C(=O)N[C@@H]([C@H]2O[C@H](SC)[C@H](O)[C@@H](O)[C@H]2O)[C@@H](C)O)N(C)C1 [lincomycin] the “effect on cytosolic Ca2+ transients” value ([2]; tested at a concentration of 500 µM) was “without effect”.
For NCCCCNCCCN [spermidine], the “increase in [Ca2+]i, % of that evoked by a maximal concentration of extracellular Ca2+” value ([4]; concentration of 1 mM) was “about 10%”, the “increase in [Ca2+]i in osteoclasts” value [4] was “none of these caused any large increase in [Ca^2+]i” and the “Net (+) Charge” value [3] was “+3”. It also gave a pEC50 [2] of 2.70.
In the case of [H]/N=C(/N)N[C@H]1[C@H](O)[C@@H](O)[C@H](O[C@@H]2O[C@@H](C)[C@](O)(C=O)[C@H]2O[C@@H]2O[C@@H](CO)[C@H](O)[C@@H](O)[C@@H]2NC)[C@@H](N/C(N)=N\[H])[C@@H]1O [streptomycin], the “Net (+) Charge” value [3] was “+3”, the pEC50 [2, 8] was 3.22 and the pEC50 ([2]; […]) was 3.22.
For NCCNCCNCCNCCN [tetraethylenepentamine], the “Net (+) Charge” value [3] was “+5”.
With NCCNCCNCCN [triethylenetetramine] the “Net (+) Charge” value [3] was “+4”.
For COc1ccc(CCN(C)CCCC(C#N)(c2ccc(OC)c(OC)c2)C(C)C)cc1OC (centres unmarked) [verapamil], the “increase in [Ca2+]i in osteoclasts” value [4] was “none of these caused any large increase in [Ca^2+]i” and the “increase in [Ca2+]i” value ([4]; verapamil 100 µM) was “no detectable increase in [Ca^2+]i”.
For “N^1,N^1,N^5,N^14,N^14-tetrakis-(3-aminopropyl)spermine [NPS 382]”, the “Net (+) Charge” value [3] was “+8” and the “mobilization of intracellular Ca2+ in oocytes expressing the Ca2+ receptor” value (Ca^2+ receptor) was “effective”.
With gentamicin the “Net (+) Charge” value [3] was “+5”.
